Laboratory results from patent US20250122183A1 (Pfizer Inc., priority 2023, published 2025).
Like-named read-outs stand apart in the source and are kept apart here.

Key:
KAT6A Full length enzyme = KAT6A Full length enzyme (Homo sapiens (Human), UniProt Q92794); experiment: KAT6A assay (SAMDI-MS acetylation of H3 1-21 peptide); format: biochemical; conditions: replicate number in parentheses
[1] = molecular target: KAT7+JADE1+EAF6+ING5 4 protein complex (Homo sapiens (Human), UniProt O95251); experiment: KAT7 JADE1 assay (SAMDI-MS acetylation of H3 1-21 peptide); format: biochemical; conditions: replicate number in parentheses
[2] = read-out: KAT6A Ki (nM) (replicate)
[3] = read-out: KAT7 JADE1 Ki (nM) (replicate)
[4] = Morrison equation fit, read-out: KAT6A Ki (nM) (replicate number)
[5] = Morrison equation fit, read-out: KAT7 JADE1 Ki (nM) (replicate number)

Chain of KAT6A Full length enzyme (Q92794 other isoform, or with tags, fused parts or gaps): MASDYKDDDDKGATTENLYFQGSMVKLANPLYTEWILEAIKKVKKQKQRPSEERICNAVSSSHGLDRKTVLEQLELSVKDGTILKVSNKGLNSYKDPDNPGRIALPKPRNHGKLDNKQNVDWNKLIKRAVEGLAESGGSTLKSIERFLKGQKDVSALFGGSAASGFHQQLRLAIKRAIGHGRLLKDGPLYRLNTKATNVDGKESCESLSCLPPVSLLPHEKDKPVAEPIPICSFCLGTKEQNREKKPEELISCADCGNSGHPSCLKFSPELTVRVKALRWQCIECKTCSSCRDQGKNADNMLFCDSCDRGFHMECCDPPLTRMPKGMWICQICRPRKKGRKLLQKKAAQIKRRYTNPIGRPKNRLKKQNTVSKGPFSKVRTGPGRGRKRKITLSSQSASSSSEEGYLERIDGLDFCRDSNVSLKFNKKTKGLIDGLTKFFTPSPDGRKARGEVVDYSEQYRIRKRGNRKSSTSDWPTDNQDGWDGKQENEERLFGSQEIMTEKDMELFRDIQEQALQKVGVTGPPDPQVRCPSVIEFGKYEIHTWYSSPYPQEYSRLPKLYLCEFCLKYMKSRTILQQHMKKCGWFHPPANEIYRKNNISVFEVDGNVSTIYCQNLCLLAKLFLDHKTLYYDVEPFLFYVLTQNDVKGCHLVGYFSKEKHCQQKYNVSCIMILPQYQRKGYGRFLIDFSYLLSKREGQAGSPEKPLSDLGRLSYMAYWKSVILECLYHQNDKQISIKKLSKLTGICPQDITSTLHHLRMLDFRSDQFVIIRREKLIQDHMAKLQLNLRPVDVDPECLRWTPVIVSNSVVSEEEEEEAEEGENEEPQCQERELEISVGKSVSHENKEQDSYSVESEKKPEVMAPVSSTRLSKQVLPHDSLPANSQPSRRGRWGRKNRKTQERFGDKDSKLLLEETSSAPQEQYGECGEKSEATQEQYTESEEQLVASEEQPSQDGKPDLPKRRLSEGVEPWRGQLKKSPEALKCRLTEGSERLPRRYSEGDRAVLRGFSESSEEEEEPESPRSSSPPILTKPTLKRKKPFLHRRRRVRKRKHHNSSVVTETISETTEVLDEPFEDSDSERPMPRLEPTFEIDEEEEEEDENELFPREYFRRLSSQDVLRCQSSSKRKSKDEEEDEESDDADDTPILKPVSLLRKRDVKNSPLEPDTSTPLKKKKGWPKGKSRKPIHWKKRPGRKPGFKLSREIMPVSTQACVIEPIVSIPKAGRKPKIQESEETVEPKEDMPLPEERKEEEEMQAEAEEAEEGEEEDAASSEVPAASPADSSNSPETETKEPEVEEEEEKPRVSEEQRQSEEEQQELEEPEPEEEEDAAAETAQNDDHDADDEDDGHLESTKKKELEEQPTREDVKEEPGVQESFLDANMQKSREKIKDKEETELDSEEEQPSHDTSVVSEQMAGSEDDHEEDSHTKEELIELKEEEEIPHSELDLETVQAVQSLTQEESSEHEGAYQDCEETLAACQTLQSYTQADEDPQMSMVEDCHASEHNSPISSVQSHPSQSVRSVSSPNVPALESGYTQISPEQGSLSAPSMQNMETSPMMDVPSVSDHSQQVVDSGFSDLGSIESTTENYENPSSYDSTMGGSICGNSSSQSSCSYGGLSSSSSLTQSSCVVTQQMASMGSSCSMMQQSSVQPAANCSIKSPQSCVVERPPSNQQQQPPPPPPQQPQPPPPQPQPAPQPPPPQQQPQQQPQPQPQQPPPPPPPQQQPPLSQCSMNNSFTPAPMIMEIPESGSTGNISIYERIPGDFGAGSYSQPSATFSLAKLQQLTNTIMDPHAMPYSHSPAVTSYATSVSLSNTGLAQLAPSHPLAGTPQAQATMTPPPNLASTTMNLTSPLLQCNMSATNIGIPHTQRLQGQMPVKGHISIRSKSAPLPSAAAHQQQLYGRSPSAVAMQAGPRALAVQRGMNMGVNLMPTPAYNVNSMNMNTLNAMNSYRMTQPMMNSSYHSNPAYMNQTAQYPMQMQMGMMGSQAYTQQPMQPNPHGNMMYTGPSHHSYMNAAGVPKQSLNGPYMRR

| Compound | Ki (KAT6A Full length enzyme; [2]) [nM] | Ki [1, 3] [nM] | Ki (KAT6A Full length enzyme; [4]) [nM] | Ki [1, 5] [nM] |
| --- | --- | --- | --- | --- |
| COc1cc2c(NS(=O)(=O)c3c(OC)cc(N4CC(F)C4)cc3OC)noc2cc1Nc1cc(C2CC2)n[nH]1 [Example 252, N-{6-[(3-cyclopropyl-1H-pyrazol-5-yl)amino]-5-methoxy-1,2-benzoxazol-3-yl}-4-(3-fluoroazetidin-1-yl)-2,6-dimethoxybenzene-1-sulfonamide] | 0.8 | 5.7 | – | – |
| COCC(OC)c1cc(OC)c(S(=O)(=O)Nc2noc3cc(Nc4cc(C5CC5)[nH]n4)c(OC)cc23)c(OC)c1 (single isomer, unassigned) [Example 274, N-{6-[(5-cyclopropyl-1 H-pyrazol-3-yl)amino]-5-methoxy-1,2-benzoxazol-3-yl}-4-(1,2-dimethoxyethyl)-2,6-dimethoxybenzene-1-sulfonamide] | 2.8 | 6.9 | – | – |
| CCN1CCCCC1c1cc(OC)c(S(=O)(=O)Nc2noc3cc(Nc4cc(C5CC5)n[nH]4)c(OC)cc23)c(OC)c1 (single isomer, unassigned) [Example 173, N-{6-[(3-cyclopropyl-1 H-pyrazol-5-yl)amino]-5-methoxy-1,2-benzoxazol-3-yl}-4-(1-ethylpiperidin-2-yl)-2,6-dimethoxybenzene-1-sulfonamide] | – | – | 7.5 | 114 |
| COc1cc2c(NS(=O)(=O)c3c(OC)cc(CN4CC[C@@H](C(F)F)C4)cc3OC)noc2cc1Nc1cc(C2CC2)n[nH]1 [Example 204] | – | – | 1.1 | 4.9 |
| COc1cc2c(NS(=O)(=O)c3c(OC)cc(C4CCCN4CC(F)F)cc3OC)noc2cc1Nc1cc(C2CC2)n[nH]1 (single isomer, unassigned) [Example 165, N-{6-[(3-cyclopropyl-1H-pyrazol-5-yl)amino]-5-methoxy-1,2-benzoxazol-3-yl}-4-[1-(2,2-difluoroethyl)pyrrolidin-2-yl]-2,6-dimethoxybenzene-1-sulfonamide] | – | – | 1.4 | 5 |
| COc1cc2c(NS(=O)(=O)c3c(OC)cc(C(=O)N4CC(F)C4)cc3OC)noc2cc1Nc1cc(C2CC2)n[nH]1 [Example 262, N-{6-[(3-cyclopropyl-1H-pyrazol-5-yl)amino]-5-methoxy-1,2-benzoxazol-3-yl}-4-(3-fluoroazetidine-1-carbonyl)-2,6-dimethoxybenzene-1-sulfonamide] | 1 | 8.1 | – | – |
| COc1cc2c(NS(=O)(=O)c3c(OC)cc(CN4CCC(C(F)(F)F)C4)cc3OC)noc2cc1Nc1cc(C2CC2)n[nH]1 (stereo not shown) [Example 205, N-{6-[(3-cyclopropyl-1H-pyrazol-5-yl)amino]-5-methoxy-1,2-benzoxazol-3-yl}-2,6-dimethoxy-4-{[3-(trifluoromethyl)pyrrolidin-1-yl]methyl}benzene-1-sulfonamide] | – | – | 1.4 | 6 |
| COc1cc2c(NS(=O)(=O)c3c(OC)cc(C(=O)N4CCC(F)(F)CC4)cc3OC)noc2cc1Nc1cc(C2CC2)n[nH]1 [Example 263, N-{6-[(3-cyclopropyl-1H-pyrazol-5-yl)amino]-5-methoxy-1,2-benzoxazol-3-yl}-4-(4,4-difluoropiperidine-1-carbonyl)-2,6-dimethoxybenzene-1-sulfonamide] | 1.4 | 9.8 | – | – |
| COc1cc2c(NS(=O)(=O)c3c(OC)cc(CN4CCC[C@H](C)C4)cc3OC)noc2cc1Nc1cc(C2CC2)n[nH]1 [Example 195, N-{6-[(3-cyclopropyl-1H-pyrazol-5-yl)amino]-5-methoxy-1,2-benzoxazol-3-yl}-2,6-dimethoxy-4-{[(3S)-3-methylpiperidin-1-yl]methyl}benzene-1-sulfonamide] | – | – | 2.5 | 18.9 |
| CCN1CCOC(c2cc(OC)c(S(=O)(=O)Nc3noc4cc(Nc5cc(C6CC6)n[nH]5)c(OC)cc34)c(OC)c2)C1 (single isomer, unassigned) [Example 157, N-{6-[(3-cyclopropyl-1 H-pyrazol-5-yl)amino]-5-methoxy-1,2-benzoxazol-3-yl}-4-(4-ethylmorpholin-2-yl)-2,6-dimethoxybenzene-1-sulfonamide] | – | – | 2.5 | 11.6 |
| COc1cc2c(NS(=O)(=O)c3c(OC)cccc3OC)noc2cc1Nc1nc[nH]n1 [Example 61, 2,6-dimethoxy-N-{5-methoxy-6-[(1H-1,2,4-triazol-3-yl)amino]-1,2-benzoxazol-3-yl}benzene-1-sulfonamide] | – | – | 0.2 | 54.7 |
| COc1cc2c(NS(=O)(=O)c3c(OC)cccc3OC)noc2cc1Nc1[nH]nc2c1CNC2 [Example 49, 2,6-dimethoxy-N-{5-methoxy-6-[(2,4,5,6-tetrahydropyrrolo[3,4-c]pyrazol-3-yl)amino]-1,2-benzoxazol-3-yl}benzene-1-sulfonamide] | – | – | 4 | > 2340 |
| COc1cc2c(NS(=O)(=O)c3c(OC)cccc3OC)noc2cc1Nc1noc(C)n1 [Example 37, 2,6-dimethoxy-N-{5-methoxy-6-[(5-methyl-1,2,4-oxadiazol-3-yl)amino]-1,2-benzoxazol-3-yl}benzene-1-sulfonamide] | – | – | 15.9 | > 2340 |
| COc1cc2c(NS(=O)(=O)c3c(OC)cc(C(C)N4CC(F)C4)cc3OC)noc2cc1Nc1cc(C2CC2)[nH]n1 (single isomer, unassigned) [Example 210, N-{6-[(5-cyclopropyl-1H-pyrazol-3-yl)amino]-5-methoxy-1,2-benzoxazol-3-yl}-4-[1-(3-fluoroazetidin-1-yl)ethyl]-2,6-dimethoxybenzene-1-sulfonamide] | – | – | 1.2 | 6.6 |
| COCc1cc(Nc2cc3onc(NS(=O)(=O)c4c(OC)cccc4OC)c3cc2OC)[nH]n1 [Example 91, 2,6-dimethoxy-N-(5-methoxy-6-{[3-(methoxymethyl)-1H-pyrazol-5-yl]amino}-1,2-benzoxazol-3-yl)benzene-1-sulfonamide] | – | – | 2.3 | 802 |
| COc1cc2c(NS(=O)(=O)c3c(OC)cc(CN4CCC[C@@H](F)C4)cc3OC)noc2cc1Nc1cc(C2CC2)n[nH]1 (single isomer, unassigned) [Example 198, N-{6-[(3-cyclopropyl-1H-pyrazol-5-yl)amino]-5-methoxy-1,2-benzoxazol-3-yl}-4-[(3-fluoropiperidin-1-yl)methyl]-2,6-dimethoxybenzene-1-sulfonamide] | – | – | 1.1 | 5.9 |
| COc1cc2c(NS(=O)(=O)c3c(OC)cc(-c4cnc(N(C)C)cn4)cc3OC)noc2cc1Nc1cc(C2CC2)n[nH]1 [Example 217, N-{6-[(3-cyclopropyl-1H-pyrazol-5-yl)amino]-5-methoxy-1,2-benzoxazol-3-yl}-4-[5-(dimethylamino)pyrazin-2-yl]-2,6-dimethoxybenzene-1-sulfonamide] | – | – | 0.2 | 1.9 |
| COc1cc2c(NS(=O)(=O)c3c(OC)cc(C(=O)N4CC(F)(F)C4)cc3OC)noc2cc1Nc1cc(C2CC2)n[nH]1 [Example 264, N-{6-[(3-cyclopropyl-1H-pyrazol-5-yl)amino]-5-methoxy-1,2-benzoxazol-3-yl}-4-(3,3-difluoroazetidine-1-carbonyl)-2,6-dimethoxybenzene-1-sulfonamide] | 2.3 | 17.6 | – | – |
| COc1cc2c(NS(=O)(=O)c3c(OC)cc(C4CC(F)CCN4C)cc3OC)noc2cc1Nc1cc(C2CC2)[nH]n1 (stereo not drawn) [Example 193, N-{6-[(5-cyclopropyl-1 H-pyrazol-3-yl)amino]-5-methoxy-1,2-benzoxazol-3-yl}-4-trans(4-fluoro-1-methylpiperidin-2-yl)-2,6-dimethoxybenzene-1-sulfonamide] | – | – | 1.4 | 12 |
| COc1cccc(OC)c1S(=O)(=O)Nc1noc2cc(N[C@@H]3CCOC3)cc(OC)c12 [Example 13, 2,6-dimethoxy-N-(4-methoxy-6-{[(3R)-oxolan-3-yl]amino}-1,2-benzoxazol-3-yl)benzene-1-sulfonamide] | – | – | 25.5 | > 2340 |
| COc1cc2c(NS(=O)(=O)c3c(OC)cc(C4CN(C5CCOC5)C4)cc3OC)noc2cc1Nc1cc(C2CC2)n[nH]1 (racemic) [Example 187, N-{6-[(3-cyclopropyl-1H-pyrazol-5-yl)amino]-5-methoxy-1,2-benzoxazol-3-yl]-2,6-dimethoxy-4-[1-(oxolan-3-yl)azetidin-3-yl]benzene-1-sulfonamide] | – | – | 2.2 | 13.1 |
| COc1cc2c(NS(=O)(=O)c3c(OC)cc(C4CCN([C@H]5CCOC5)C4)cc3OC)noc2cc1Nc1cc(C2CC2)n[nH]1 (single isomer, unassigned) [Example 162] | – | – | 1.2 | 8.9 |
| COc1cc2c(NS(=O)(=O)c3c(OC)cc(C4CN(C)CC(F)(F)C4)cc3OC)noc2cc1Nc1cc(C2CC2)[nH]n1 (single isomer, unassigned) [Example 229, N-{6-[(5-cyclopropyl-1 H-pyrazol-3-yl)amino]-5-methoxy-1,2-benzoxazol-3-yl}-4-(5,5-difluoro-1-methylpiperidin-3-yl)-2,6-dimethoxybenzene-1-sulfonamide] | – | – | 1.7 | 6.4 |
| CCc1cc(Nc2cc3onc(NS(=O)(=O)c4c(OC)cc(C5COCCO5)cc4OC)c3cc2OC)[nH]n1 (single isomer, unassigned) [Example 240, 4-(1,4-dioxan-2-yl)-N-{6-[(3-ethyl-1H-pyrazol-5-yl)amino]-5-methoxy-1,2-benzoxazol-3-yl}-2,6-dimethoxybenzene-1-sulfonamide] | – | – | 1.2 | 7.5 |
| COc1cccc(OC)c1S(=O)(=O)Nc1noc2cc(Nc3ncco3)cc(OC)c12 [Example 17, 2,6-dimethoxy-N-{4-methoxy-6-[(1,3-oxazol-2-yl)amino]-1,2-benzoxazol-3-yl}benzene-1-sulfonamide] | – | – | 1.9 | 1230 |
| COc1cc2c(NS(=O)(=O)c3c(OC)cc(CN4CCC[C@H](F)C4)cc3OC)noc2cc1Nc1cc(C2CC2)n[nH]1 (single isomer, unassigned) [Example 197, N-{6-[(3-cyclopropyl-1H-pyrazol-5-yl)amino]-5-methoxy-1,2-benzoxazol-3-yl}-4-[(3-fluoropiperidin-1-yl)methyl]-2,6-dimethoxybenzene-1-sulfonamide] | – | – | 1.3 | 7.3 |
